Counter-ions that a name gives are not always drawn. Bounds are passed on as bounds.

The subject of series [1] is reserpine induced hypothermia. Kind of series: Antireserpine activity: antagonism of reserpine induced hypothermia (antidepressant activity). It counts as in vivo. The note with it: for Antireserpine Activity in Mice, Relative Potency: relative to Amitriptyline = 1, i.p., reserpine 5 mg/kg i.p.
The next series in a line: in vivo. The note with it: mouse, ip.
A further series concerns tremorine induced tremor. In words: Antitremorine effect (central anticholinergic effect). The format is in vivo. The note with it: mice.
In series [2] the test system is electroshock induced tonic extensor. In words: Anticonvulsant activity: antagonism of electroshock induced tonic extensor. It counts as in vivo. The note with it: Mus musculus, ip, mice, dose which prevents 50% of each response.
Experimental: (§1) The compounds were administered intraperitoneally and the activities of the compounds were compared with those of Amitriptyline.
A further series has as its system mice. The note with it: i.p.
The subject of the next series is traction test. Kind of series: Muscle relaxant action: traction test (CNS depressant activity, neurological deficit). The format is in vivo. The note with it: Mus musculus, ip, mice.
Series [3] has as its system spontaneous motor activity. Kind of series: Spontaneous motor activity depression (ANIMEX apparatus; CNS depressant activity). The format is in vivo. The note with it: mice.
Experimental: as §1

Experimental for traction test: as §1
Experimental for tremorine induced tremor: as §1

A word on the LD50: it is the dose expected to kill half of the subjects tested. On to `CC(c1ccccc1)c1ccccc1OCCCN(C)C` (centres unmarked) [2-(3-dimethylaminopropoxy)diphenylmethylmethane], for which the “Antireserpine Activity in Mice, Relative Potency” value in series [1] amounted to 0.34. In the series “in vivo”, this compound yielded an LD50 of 155 mg/kg.
For `CC(c1ccccc1)c1ccccc1OCCCCN(C)C` (centres unmarked) [2-(4-dimethylaminobutoxy)diphenylmethylmethane hydrochloride], in series [1], the “Antireserpine Activity in Mice, Relative Potency” value came to 0.36. Moreover, in the series “in vivo”, the LD50 was determined as 110 mg/kg.
What is called ED50 is the dose at which the effect has come halfway, by size or by number of responders. Consider `CNCCCCOc1ccccc1C(C)c1ccccc1` (centres unmarked) [2-(4-methylaminobutoxy)diphenylmethylmethane hydrochloride], for which, in series [1] (mice, i.p., compared with Amitriptyline), the “antireserpine activity (in words)” value was “antireserpine activity comparable to that of Amitriptyline”. For the same compound, the “Antireserpine Activity in Mice, Relative Potency” value in series [1] is 0.66. Moreover, the ED50 with tremorine induced tremor (Mus musculus, ip, tremorine induced tremor) was 20 mg/kg; in series [2], 25 mg/kg; in the series on traction test it was greater than 60 mg/kg; in series [3] (Mus musculus, ip, ANIMEX apparatus) it was 32 mg/kg. Further, the “anticholinergic action (in words)” value with tremorine induced tremor (i.p.) was “weak CNS depressant and anticholinergic action”. Besides, the “toxicity (in words)” value in the series on mice is listed as “low toxicity”. Also, the LD50 in the series “in vivo” was determined as 140 mg/kg. Besides, the “CNS depressant action (in words)” value in series [3] (i.p., traction test and spontaneous motor activity) was “weak CNS depressant”.

Source of the values: US4100299A, “Pharmaceutically active 2-omega-aminoalkoxydiphenylmethylmethanes” (Mitsubishi Chemical Industries Limited, priority 1977, dated 1978).
